Measured values from patent publication US20030104443A1, “AFAP sequences, polypeptides, antibodies and methods” (University of West Virginia, priority 2001, published 2003).

Legend:
[1] = tested on: AFAP-110 in C3H10T1/2 cells; assay: Phosphoamino acid analysis of AFAP-110 after PMA treatment; format: cell-based; details: 100 nM PMA, 15 min; relative to 4α-PDD treatment; densitometry
Description: (1, PKCα (0.5 μg); 2, PKCα (0.5 μg)+rAFAP-110 (10 μg); 3, rAFAP-110 (10 μg)). Data are representative of three experiments. […] C3H10T1/2 cells were serum-starved in phosphate-free media supplemented with radiolabeled ^32P-orthophosphate overnight and treated with 100 nM PMA, 100 nM 4α-PDD, or DMSO, the vehicle used. Cells were lysed after 15 min and AFAP-110 was immunoprecipitated using the antibody F1. Radiolabeled AFAP-110 was isolated by SDS-PAGE and subjected to phosphoamino acid analysis.
To test whether AFAP-110 could be phosphorylated in cells in response to PKC activation in vivo, serum-starved C3H10T1/2 fibroblasts labeled with ^32P-orthophosphate were stimulated with 100 nM PMA for 15 min to activate PKC. Cos-1 cells were maintained and transfected as previously described (Guappone and Flynn, 1997, supra). C3H10T1/2 cells were cultured as previously described (Qian et al., 2000, supra). Transient transfections of C3H10T1/2 cells were carried out using SuperFect (QIAGEN, Santa Clarita, Calif.) as previously described (Qian et al., 2000, supra).
Phosphoamino Acid Analysis C3H10T1/2 cells were grown to 60% confluence in 100-mm culture dishes, serum starved overnight, and then stimulated with 100 nM PMA or 100 nM 4α-PDD for 15 min. […] Relative intensity compared with background of radiation from spots was quantitated with ImageQuant software (Molecular Dynamics, Sunnyvale, Calif.).

C3H10T1/2 cells = assay: Immunofluorescence of actin structures after PMA treatment; format: cell-based
Description: For PKC activation with PMA, C3H10T1/2 cells were transfected with plasmids encoding AFAP-110. Twenty-four hours after transfections, the cells were serum starved overnight. PMA at 100 nM was used to activate PKC for 60 min. Cells were fixed and permeablized as previously described (Qian et al., 1998, supra). After washing, cells were labeled with BODIPY 650/665 phalloidin (Molecular Probes, Eugene, Oreg.) and 4C3 antibody for 20 min. Cells were washed again and then labeled with ALEXA 488 (Molecular Probes) for 25 min. Cells were washed and mounted on slides with Fluoromount (Fisher, Pittsburgh, Pa.). For serum induction experiments, C3H10T1/2 cells were serum starved overnight, and then serum-complete media was added. Cells on coverslips were washed and fixed at 15-min time points >2 h. Polyclonal antibody F1 and TRITC-labeled anti-rabbit secondary antibody were used to visualize endogenous AFAP-110, with washings as above. BODIPY 650/665 phalloidin was used to visualize actin. A Zeiss LSM 510 microscope (Thornwood, N.Y.) was used to gather images, which were recolored from grayscale. Scale bars were generated and inserted by LSM 510 software (Carl Zeiss, Thornwood, N.Y.).
Immunofluorescence labeling and imaging was carried out as described. C3H10T1/2 cells expressing AFAP-110 were treated with either 100 nM PMA (A1-A3) or 100 nM 4α-PDD (A4-A6) for 15 min after overnight serum starvation. AFAP-110 is represented in red (A1 and A4), whereas actin is represented in green (A2 and A5). (A3 and A6) Overlap images of AFAP-110 and actin. Arrows indicate colocalization of AFAP-110 with dynamic actin structures: white arrows, filopodia; gray arrows, lamellipodia; black arrows, actin filaments in the top panel and disrupted actin filaments/rosettes in the bottom panel. […] Immunofluorescence labeling and imaging were carried out as described in Experimental Procedures. C3H10T1/2 cells coexpressing GFP-AFAP-110 (B1) and myristoylated, Flag-tagged PKC were labeled to show Flag-tagged PKC (B2) and actin (B3). Arrows indicate colocalization of AFAP-110 with dynamic actin structures: white arrows label filopodia and black arrows label lamellipodia. […] Immunofluorescence labeling and imaging were carried out as described. C3H10T1/2 cells were transfected with pCMV-GFP-AFAP-110 (C1-C6) and pCMV-GFP-AFAP^Δ180-226 (C7-C9). PMA at 100 nM was used to stimulate the cells for 1 h. C1, C4, and C7; green GFP fusion protein images; C2, C5, and C8; X actin images; C3, C6, and C9, overlap images of GFP fusion protein and actin images.

actin filaments [2] = assay: Low-speed cosedimentation assay (20,800×g), actin filament cross-linking; format: biochemical; details: 0.5 μM protein, 2 μM actin filaments; FIG. 13A
Description: (§1) Binding constants were derived from the sedimentation of rAFAP-110 by actin. Accordingly, rAFAP-110 in the pellet and supernatant correspond to the bound and free rAFAP-110, respectively. The sum of densities of rAFAP-110 bands in the supernatant and pellet corresponds to the total mass of rAFAP-110 in the sample. The data representing the bound rAFAP-110 as a function of free rAFAP-110 were fit by nonlinear least squares to both the Langmuir (B=BMAX/(1+Kd/F)) and […] 2 μM F-actin filaments and different concentrations of rAFAP-110 in 5 mM MgCl2, 1 mM EGTA, 2 mM ATP, and 50 mM KCl at 20,800×g for 30 min at 4° C. After the centrifugation, both supernatant and pellets were analyzed by SDS-PAGE gel. Confocal microscopy assays were performed as described (Ishikawa et al., 1998, J. Biol. Chem., 273:26991-26997). Briefly, 2 μM F-actin containing 10% rhodamine-phalloidin-labeled F-actin were mixed with different concentrations of rAFAP-110 or other purified recombinant proteins in 5 mM MgCl2, 1 mM EGTA, 2 mM ATP, and 50 mM KCl at RT for 30 min. After the incubation, the reactions were applied between glass slides and coverslips and observed under confocal microscopy (Zeiss, Oberkochen, Germany). Samples for negative staining were adsorbed to grids coated with nitrocellulose and stabilized with carbon (Ernest F. Fullam, Latham, N.Y.). Unbound protein was removed by successive washes with buffer and water before staining with 1% uranylacetate (Cooper and Pollard, 1982, Methods Enzymol., 85(PtB), 182-210; Pollard and Cooper, 1982, Methods Enzymol., 85(PtB), 211-233).
Actin filaments are unable to efficiently pellet at 20,800×g unless cross-linked to form heavier particles (either isotropic networked or bundled actin filaments; Cooper and Pollard, 1982, supra; Pollard and Cooper, 1982, supra; Meyer et al., 1990, J. Cell. Biol. 110:2013-2024; Wachsstock et al., 1993, Biophys. J., 65: 205-214; Rybakova et al., 1996, J. Cell. Biol., 135:661-672). […] The purified recombinant proteins were incubated with actin filaments and then were centrifuged at 20,800×g. Both supernatants (S) and pellets (P) were applied to SDS-PAGE gel, followed by Coomassie staining. 1, rAFAP-110 with actin filaments; 2, rAFAP-110^Δcterm with actin filaments; 3, rAFAP-110 only; 4, rAFAP-110^Δcterm only; 5, actin filaments only. FIG. 8B is a graph of cross-linked actin filaments versus free rAFAP-110. rAFAP-110 at 0.05,0.11,0.21,0.43, 0.86, and 2.14 μM was incubated with the 2 μM concentration of G-actin polymerized into actin filaments. After the incubation, the reactions were centrifuged at 20,800×g. Both supernatants and pellets were applied to SDS-PAGE gel, followed by the Western blot analysis to detect rAFAP-110 and Coomassie blue staining to detect actin, respectively. The data of cross-linked actin filaments and free rAFA-110 were gathered by scanning densitometry of SDS-PAGE gel analysis.

actin filaments [3] = assay: Confocal microscopy of rhodamine-phalloidin-labeled actin filaments; format: biochemical; details: 0.5 μM protein, 2 μM actin filaments; FIG. 13B
Description: as §1
To further test AFAP-110's capability to cross-link actin filaments, we analyzed rhodamine-phalloidin-labeled actin filaments for cross-linking by confocal microscopy. In FIG. 9A, purified rAFAP-110 or rAFAP-110^Δcterm were incubated with rhodamine-phalloidin-labeled actin filaments. […] 1, actin filaments only; 2, rAFAP-110 with actin filaments; 3, rAFAP-110^Δcterm with actin filaments. FIG. 9B presents confocal microscopy images. Different concentrations of α-actinin (top two panels, low=0.0625 μM and high=1.25 μM) and rAFAP-110 (bottom two panels, low=0.106 μM and high=2.1 μM) were incubated with rhodamine-phalloidin-labeled actin filaments. […] Actin filaments labeled with rhodamine-phalloidin appeared uniformly fluorescent in the absence of an actin binding protein (FIG. 9A1). […] Electron microscopy was used to confirm rAFAP-110's ability to cross-link actin filaments.

[4] = after treatment with 100 nM PMA

Row | Molecule | increase in phosphoserine of AFAP-110 [1] | increase in phosphothreonine of AFAP-110 [1] | time in which the changes occur (C3H10T1/2 cells; 100 nM PMA) | actin structures upon PMA treatment (C3H10T1/2 cells; 100 nM PMA, serum-starved cells expressing AFAP-110) | time by which cells completely reverted to quiescent phenotype (C3H10T1/2 cells; [4]) | time by which changes largely revert (C3H10T1/2 cells; [4]) | ability to coprecipitate actin filaments compared with rAFAP-110 (actin filaments [2]) | confocal fluorescence pattern of actin filaments (actin filaments [3])
1 | CCCCCCCCCCCCCC(=O)O[C@@H]1[C@@H](C)[C@@]2(O)[C@@H](C=C(CO)C[C@]3(O)C(=O)C(C)=C[C@@H]23)[C@@H]2C(C)(C)[C@]12OC(C)=O [PMA] | 3.9 fold | 5.7 fold | ≤ 15 min | Lamellipodia, filopodia, and rosettes appear | ≤ 6 h | ≤ 2 h | – | –
2 | PKCα phosphorylated rAFAP-110: rAFAP-110 phosphorylated with recombinant PKCα (protein, UniProt Q90738 1-729, looked up, PKCalpha phosphorylated, rAFAP-110 phosphorylated with recombinant PKCα) Actin filament-associated …: MEELIVELRLFLELLDHEYLTSTVREKKAVITNILLRIQSSKGFEIKEHVQKPEVANSLPAPPQMPLPEIPQQWLPPDNGPPPLPTSSLPEGYYEEAVPVSPGKAPEYITSNYDSDAMSSSYESYDEEEEDGKGKKMRHQWPSEEASMDLVKDAKICAFLLRKKRFGQWTKLLCVIKENKLLCYKSSKDQQPQMELLLNDCSITYIPKDSKKKKHELKISHQGADALVLAVQSKEQAEQWLKVIKDVCSNCTGTVDSDGPLSSSPVHKTELEKKLSSERPSSDGEGAVENGITTVCNGKEQVKRKKSSKTEAKGTVTKVTGKKITKIIGLGKKKPSTDEQTSSAEEDVPTCGYLNVLSNNRWRERWCRVKDNKLIFHKDRTDLKTHIVSIPLRGCEVIPGLDSKHPLTFRLLRNGQEVAVLEASSSEDMGRWIGMLLAETGSSTDPGALHYDYIDVEMTASVIQAAKQTFCFMNRRVISTNPYRGSTANGYACPSGMALHYDDVPCINGSFKGKKPPATANGITGKVRTLNSQPKKPESVSCVKRTASNAEQYKYGKNRVEAVAKRLQSKEEELLKRKEALRNRLAQLRKERKDLRAAIEVNAGRKTQVILEDKLKKLEEECKTKEAERVNLELELTEVKESLKKALAGGITLGLAIEPKSGTSSPQSPIFKHRTLENSPISSCDTSDTECSIPVNSAAALKRPPSSNNSPCRGHVLRKAKEWEMKNGT | – | – | – | – | – | – | increased the ability of rAFAP-110 to coprecipitate actin filaments | large aggregates of fluorescence
